Experimental data: patent US7977375B2, “Antibiotic and method of production thereof” (Helmholtz-Zentrum Für Infektionsforschung GmbH, priority 2004, dated 2011)
Values after ≈ are worked out from the molar mass of the structure shown. Like-named read-outs stand apart in the source and are kept apart here.

Key:
[1] = system: E. faecalis VRAS E305; test: MIC / MBC in liquid culture; type: cell-based, Enterococcus faecalis; conditions: for MIC: Enterococcus faecalis
[2] = system: MRSA 2; test: MIC / MBC in liquid culture; type: cell-based, Staphylococcus aureus; conditions: for MIC: Staphylococcus aureus, read-out: MIC (minimal inhibitory concentration)
[3] = system: B. cepacia SCV 141; test: agar diffusion method, inhibition zone; type: cell-based, Burkholderia cepacia; conditions: Burkholderia cepacia, SCV141, MH agar, 18 hours at 37° C., per disk 10 μl crude extract, 50 μg macrolactin, 78 μg erythromycin, 10 μg ampicillin
Procedure: (§1) The agar diffusion method employing Mueller-Hinton (MH) agar (Difco Laboratories) was used to determine effectiveness against bacteria and yeasts. Sterile paper disks (Schleicher & Schüell, Germany) were seeded with 10 μl crude extract or with a solution of purified macrolactin (final compound concentration on the disk 50 μg) and then placed on the surface of MH-agar plates that had been seeded beforehand with a suspension of overnight culture of the test microorganisms at a concentration of 10^5 cells/ml.
The B. cepacia strain used, which is a clinical isolate from a cystic fibrosis patient, forms small colonies (SCV 141).

[4] = system: B. cepacia SCV 141; test: MIC / MBC in liquid culture; type: cell-based, Burkholderia cepacia
Source text: (§2) 7-O-malonyl macrolactin A was not effective against some of the gram-negative bacteria tested by the inventors.

[5] = system: B. cepacia WT139; test: MIC / MBC in liquid culture; type: cell-based, Burkholderia cepacia
Source text: as §2

[6] = system: E. faecium VRAR E315; test: agar diffusion method, inhibition zone; type: cell-based, Enterococcus faecium; conditions: Enterococcus faecium
Procedure: as §1

[7] = system: MRSA 2 (methicillin-resistant S. aureus, clinical isolate); test: agar diffusion method, inhibition zone; type: cell-based, Staphylococcus aureus; conditions: Staphylococcus aureus
Procedure: as §1

[8] = system: S. aureus DSMZ 1104; test: agar diffusion method, inhibition zone; type: cell-based, Staphylococcus aureus; conditions: Staphylococcus aureus
Procedure: as §1

[9] = system: MRSA 3 (methicillin-resistant S. aureus, clinical isolate); test: agar diffusion method, inhibition zone; type: cell-based, Staphylococcus aureus; conditions: Staphylococcus aureus
Procedure: as §1

[10] = system: S. aureus # (own collection, methicillin-sensitive control strain); test: agar diffusion method, inhibition zone; type: cell-based, Staphylococcus aureus; conditions: Staphylococcus aureus
Procedure: as §1

[11] = system: S. aureus # (non-methicillin-resistant reference strain); test: MIC / MBC in liquid culture; type: cell-based, Staphylococcus aureus; conditions: for MIC: Staphylococcus aureus, read-out: MIC (minimal inhibitory concentration)
[12] = system: E. faecalis ATCC 29212; test: MIC / MBC in liquid culture; type: cell-based, Enterococcus faecalis; conditions: for MIC: Enterococcus faecalis
[13] = system: E. faecium VRAR E315; test: MIC / MBC in liquid culture; type: cell-based, Enterococcus faecium; conditions: for MIC: Enterococcus faecium
[14] = system: E. faecalis ATCC 29212; test: agar diffusion method, inhibition zone; type: cell-based, Enterococcus faecalis; conditions: Enterococcus faecalis
Procedure: as §1

[15] = system: E. faecalis VRAS E305; test: agar diffusion method, inhibition zone; type: cell-based, Enterococcus faecalis; conditions: Enterococcus faecalis
Procedure: as §1

[16] = system: MRSA 3; test: MIC / MBC in liquid culture; type: cell-based, Staphylococcus aureus; conditions: for MIC: Staphylococcus aureus, read-out: MIC (minimal inhibitory concentration)
[17] = MRSA, 18 h, read-out: Inhibition zone

Work on CC[C@H]1OC(=O)[C@H](C)[C@@H](O[C@H]2C[C@@](C)(OC)[C@@H](O)[C@H](C)O2)[C@H](C)[C@@H](O[C@@H]2O[C@H](C)C[C@H](N(C)C)[C@H]2O)[C@](C)(O)C[C@@H](C)C(=O)[C@H](C)[C@@H](O)[C@]1(C)O [Erythromycin, erythromycin] yielded an MIC ([1]; VRASE305, E. faecalis VRAS E305, read-out: MIC (minimal inhibitory concentration)) of 128 mg/L (≈ 174 µM), an MIC ([2]; MRSA 2) greater than 128 mg/L and a zone of inhibition at 78 µg/disc [3] of 0 mm. The MIC ([4]; Burkholderia cepacia, SCV141, read-out: MIC (minimal inhibitory concentration)) was 128 mg/L (≈ 174 µM), the MIC ([5]; Burkholderia cepacia, read-out: MIC (minimal inhibitory concentration)) was greater than 128 mg/L and the zone of inhibition at 78 µg/disc ([6]; VRARE315, E. faecium VRAR E315, MH agar, 18 hours at 37° C., per disk 10 μl crude extract, 50 μg macrolactin, 78 μg erythromycin, 30 μg vancomycin, 10 μg ampicillin) was 25 mm. The zone of inhibition at 78 µg/disc ([7]; MRSA 2, MH agar, 18 hours at 37° C., per disk 10 μl crude extract, 50 μg macrolactin, 78 μg erythromycin, 30 μg vancomycin, 10 μg ampicillin) was 0 mm, the zone of inhibition at 78 µg/disc ([8]; DSMZ1104, S. aureus DSMZ 1104, MH agar, 18 hours at 37° C., per disk 10 μl crude extract, 50 μg macrolactin, 78 μg erythromycin, 30 μg vancomycin, 10 μg ampicillin) was 30 mm and the zone of inhibition at 78 µg/disc ([9]; MRSA 3, MH agar, 18 hours at 37° C., per disk 10 μl crude extract, 50 μg macrolactin, 78 μg erythromycin, 30 μg vancomycin, 10 μg ampicillin) was 0 mm. For the same compound, the zone of inhibition at 78 µg/disc ([10]; S. aureus # own collection, MH agar, 18 hours at 37° C., per disk 10 μl crude extract, 50 μg macrolactin, 78 μg erythromycin, 30 μg vancomycin, 10 μg ampicillin) was 40 mm, the MIC ([11]; S. aureus #) was 0.06 mg/L (≈ 0.0818 µM) and the MIC ([12]; ATCC29212, E. faecalis ATCC 29212, read-out: MIC (minimal inhibitory concentration)) was 2 mg/L (≈ 2.73 µM). For the same compound, the MIC ([13]; VRARE315, E. faecium VRAR E315, read-out: MIC (minimal inhibitory concentration)) was 2 mg/L (≈ 2.73 µM), the zone of inhibition at 78 µg/disc ([14]; ATCC29212, E. faecalis ATCC 29212, MH agar, 18 hours at 37° C., per disk 10 μl crude extract, 50 μg macrolactin, 78 μg erythromycin, 30 μg vancomycin, 10 μg ampicillin) was 25 mm and the zone of inhibition at 78 µg/disc ([15]; VRASE305, E. faecalis VRAS E305, MH agar, 18 hours at 37° C., per disk 10 μl crude extract, 50 μg macrolactin, 78 μg erythromycin, 30 μg vancomycin, 10 μg ampicillin) was 0 mm. For the same compound, the MIC ([16]; MRSA 3) was greater than 128 mg/L.
Compound CN[C@H](CC(C)C)C(=O)N[C@H]1C(=O)N[C@@H](CC(N)=O)C(=O)N[C@H]2C(=O)N[C@H]3C(=O)N[C@H](C(=O)N[C@H](C(=O)O)c4cc(O)cc(O)c4-c4cc3ccc4O)[C@H](O)c3ccc(c(Cl)c3)Oc3cc2cc(c3O[C@@H]2O[C@H](CO)[C@@H](O)[C@H](O)[C@H]2O[C@H]2C[C@](C)(N)[C@H](O)[C@H](C)O2)Oc2ccc(cc2Cl)[C@H]1O [Vancomycin, vancomycin] has an MIC ([1]; VRASE305, read-out: MIC (minimal inhibitory concentration)) greater than 128 mg/L, an MIC ([2]; MRSA) of 2 mg/L (≈ 1.38 µM) and a zone of inhibition at 30 µg/disc ([6]; VRARE315, 18 h, read-out: Inhibition zone) of 0 mm. It also gave a zone of inhibition at 30 µg/disc [7, 17] of 24 mm, a zone of inhibition at 30 µg/disc ([8]; DSMZ1104, 18 h, read-out: Inhibition zone) of 20 mm and a zone of inhibition at 30 µg/disc [9, 17] of 24 mm. The zone of inhibition at 30 µg/disc ([10]; 18 h, read-out: Inhibition zone) was 27 mm, the MIC [11] was 0.125 mg/L (≈ 0.0863 µM) and the MIC ([12]; ATCC29212, read-out: MIC (minimal inhibitory concentration)) was 2 mg/L (≈ 1.38 µM). For the same compound, the MIC ([13]; VRARE315, read-out: MIC (minimal inhibitory concentration)) was greater than 128 mg/L, the zone of inhibition at 30 µg/disc ([14]; ATCC29212, 18 h, read-out: Inhibition zone) was 24 mm and the zone of inhibition at 30 µg/disc ([15]; VRASE305, 18 h, read-out: Inhibition zone) was 0 mm. It also gave an MIC ([16]; MRSA) of 1 mg/L (≈ 0.69 µM).
With Gentamycin the “MIC (minimal inhibitory concentration)” value ([1]; E. faecalis VRAS E305) was 64 mg/L, the “MIC (minimal inhibitory concentration)” value ([2]; MRSA 2) was 128 mg/L and the “MIC (minimal inhibitory concentration)” value [4] was greater than 128 mg/L. The “MIC (minimal inhibitory concentration)” value [5] was greater than 128 mg/L, the “MIC (minimal inhibitory concentration)” value ([11]; S. aureus #) was 0.25 mg/L and the “MIC (minimal inhibitory concentration)” value ([12]; E. faecalis ATCC 29212) was 32 mg/L. The “MIC (minimal inhibitory concentration)” value ([13]; E. faecium VRAR E315) was 64 mg/L and the “MIC (minimal inhibitory concentration)” value ([16]; MRSA 3) was 128 mg/L.
